Test results reported in PubChem BioAssay (NCI).
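Results reflect a 48-hour exposure of cells in 96-well plates to compound at five concentrations. GI50 marks 50% less growth. At the TGI there is no net growth.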 Where a SMILES comes first, the peptide text is derived from it. The star is where a group is joined. Cbz = O=C(OCc1ccccc1)*; Bn = c1ccc(C*)cc1

Experiments:
Assay in all cases: NCI tumour cell line growth inhibition, 48 h
[1] = test system: OVCAR-3 ovarian
[2] = test system: NCI-H522 lung
[3] = test system: U251 CNS
[4] = test system: SN12C renal
[5] = test system: A498 renal
[6] = test system: CCRF-CEM leukemia
[7] = test system: SK-OV-3 ovarian
[8] = test system: RPMI-8226 leukemia
[9] = test system: OVCAR-8 ovarian
[10] = test system: SF-539 CNS
[11] = test system: EKVX NSCLC
[12] = test system: SNB-19 CNS
[13] = test system: OVCAR-4 ovarian

Structure (SMILES) | TGI [1] | TGI [2] | TGI [3] | TGI [4] | TGI [5] | TGI [6] | TGI [7] | TGI [8] | TGI [9] | TGI [10] | TGI [11] | TGI [12] | TGI [13] | GI50 [1] | GI50 [4] | GI50 [5] | GI50 [7] | GI50 [13] | GI50 [8] | GI50 [10]
CS(=O)(=O)c1ccc2nc(-c3ccc(O)cc3)sc2c1 | 31.8 µM | 29.6 µM | 39.5 µM | 35.5 µM | 31.2 µM | > 100 µM | 31.3 µM | 35.7 µM | 42.7 µM | 23.6 µM | 23.9 µM | 36.2 µM |  |  |  |  |  |  |  | 
CCn1c(=O)c(C(=O)O)c(Cl)c2cc3c(cc21)OCO3 | > 100 µM | > 100 µM | > 100 µM | > 100 µM | > 100 µM | > 100 µM | > 100 µM | > 100 µM | > 100 µM | > 100 µM | > 100 µM | > 100 µM | > 100 µM |  |  |  |  |  |  | 
CC(=O)OCC1OC(NC(=O)N(CCCl)N=O)C(OC(C)=O)C(OC(C)=O)C1OC(C)=O (stereo not drawn) | > 100 µM | > 100 µM | > 100 µM | > 100 µM | > 100 µM | > 100 µM | > 100 µM | > 100 µM | > 100 µM | > 100 µM | > 100 µM | > 100 µM | > 100 µM |  |  |  |  |  |  | 
CC1C[C@]2(C[C@@H](C)C(=O)O2)OC2CC3(C)C4CCC5C(C)(C)OC(=O)CC[C@@]56C[C@@]46CC[C@]3(C)C12 (stereo partly drawn) |  |  | > 100 µM | > 100 µM | > 100 µM | > 100 µM |  | > 100 µM | > 100 µM | > 100 µM | > 100 µM | > 100 µM | > 100 µM |  |  |  |  |  |  | 
c1ccc(-c2n(Cc3ccc4ccccc4c3)c3ccccc3[n+]2Cc2ccc3ccccc3c2)cc1 | 1.03 µM |  |  | 1.1 µM | 0.933 µM |  | 1.08 µM | 1.47 µM |  | 1.29 µM |  |  | 0.818 µM | 0.259 µM | 0.308 µM | < 0.043 µM | 0.309 µM | 0.245 µM | 0.208 µM | 0.336 µM
COc1ccc(N2C(=O)/C(=C\c3ccccc3)SC2c2cc(OC)c(OC)c(OC)c2)cc1 (stereo not drawn) |  | > 100 µM | > 100 µM | > 100 µM | > 100 µM | > 100 µM | > 100 µM |  | > 100 µM |  | > 100 µM | > 100 µM | > 100 µM |  |  |  |  |  |  | 
CCCCSCC(NC(=O)/C=C/c1c(C)[nH]c(=O)[nH]c1=O)C(=O)OC (stereo not drawn) | 77.2 µM | 132 µM | 147 µM | 269 µM | 224 µM | 245 µM | 226 µM | 267 µM | 246 µM | 254 µM | 188 µM | 204 µM | > 89 µM |  |  |  |  |  |  | 
O=C1c2cccc(O)c2C(=O)c2c(O)cccc21 | > 100 µM | > 100 µM | > 100 µM | > 100 µM | > 100 µM | > 100 µM | > 100 µM | > 100 µM | > 100 µM | > 100 µM | > 100 µM | > 100 µM | > 100 µM |  |  |  |  |  |  | 
C1CSCCSCSCCS1 | > 100 µM | > 100 µM | > 100 µM | > 100 µM | > 100 µM |  | > 100 µM |  | > 100 µM | > 100 µM | > 100 µM | > 100 µM | > 100 µM |  |  |  |  |  |  | 
CN(C)CCOc1cc2c(c3ccccc13)-c1ccccc1C2O (stereo not drawn) | 30.1 µM | 30.7 µM | 28.9 µM | 26.9 µM | 29.8 µM | 33.1 µM | 30.1 µM | 31.2 µM | 24.7 µM | 27.5 µM | 28.2 µM | 20.2 µM | 32.9 µM |  |  |  |  |  |  | 
C=CCOCCC(CC=C)C(=O)CC(=O)OC (stereo not drawn) | > 100 µM | > 100 µM | > 100 µM | > 100 µM | > 100 µM | > 100 µM | > 100 µM | > 100 µM | > 100 µM | > 100 µM | > 100 µM | > 100 µM | > 100 µM |  |  |  |  |  |  | 
COC(=O)C(Cc1ccc(O)cc1)NC(=O)C(COCc1ccccc1)NC(=O)OCc1ccccc1 (stereo not drawn) (Cbz-Ser(Bn)-Tyr-OMe; configuration not given here) | 31.8 µM | 37.3 µM | 33.5 µM | 32.7 µM | 58 µM | > 100 µM | 31.4 µM | > 100 µM | 31.8 µM | 34.2 µM | 43.8 µM | 31.2 µM | 34 µM |  |  |  |  |  |  | 
NC(=O)c1ccc([N+](=O)[O-])cc1 | > 100 µM | > 100 µM | > 100 µM | > 100 µM | > 100 µM | > 100 µM | > 100 µM | > 100 µM | > 100 µM | > 100 µM | > 100 µM | > 100 µM |  |  |  |  |  |  |  | 
O=C(Nc1ccc(Cl)cc1)c1cc([N+](=O)[O-])ccc1O | 7.56 µM | 5.85 µM | > 70.7 µM | > 50.9 µM | 11.2 µM | 11 µM | 25.4 µM | 10.2 µM | 30.7 µM | > 34 µM | 31.3 µM | > 49.2 µM | > 100 µM |  |  |  |  |  |  | 
